Results: patent US12558369B2, “Compositions and methods of treating Fanconi Anemia” (Dana-Farber Cancer Institute, Inc., priority 2015, dated 2026)
“Also recorded” adds a separate entry of the source.

How the values were obtained:
[1] = system: Fancd2-deficient mice; test: pIpC physiological stress-induced bone marrow failure, LT-HSC DNA damage; assay type: in vivo, mouse
Source text: FIG. 13. […] Mice were pretreated in vivo with either no Tgfβ inhibitor, the neutralizing antibody to Tgfβ 1, 2, 3, or the Tgfβ receptor kinase inhibitor, Galunisertib.

[2] = system: Fancd2−/− stromal cells; test: Immunoblot of phosphorylated Erk1/2 in bone marrow stromal cells; assay type: cell-based, mouse
Procedure: FIG. 2. Characterization of FA murine primary bone marrow stromal fibroblast. • A) Survival of Fancd2+/+ or Fancd2−/− stromal cells in the presence of MMC. Data are shown in triplicate. […] (Left panel) Active mouse Tgfβ1 serum levels in the culture supernatant of Fancd2+/+ or Fancd2−/− stromal cells were evaluated by ELISA. (Right panel) qRT-PCR analysis of Tgfb1 mRNA expression. Data are shown the average of three independent experiments. Error bars represent s.e.m. • C) Immunoblots of phosphorylated Erk1/2 in stromal cells treated with Tgfβ for the indicated time.
FIG. 3. […] Error bars represent s.e.m.
Human FA cells EUFA316 were grown in RPMI1640 (Life Technologies) supplemented with 10% fetal calf serum. Fancd2^+/+ and Fancd2^−/− bone marrow stromal cells were established by culturing whole bone marrow in DMEM with 10% FBS. Fancd2^−/− stromal cells were complemented with human FANCD2 by retroviral transduction of FANCD2 cDNA in pMMP-PURO vector, followed by selection in puromycin. Whole cell extracts were prepared by lysing cells in radioimmunoprecipitation assay buffer (50 mmol/L Tris, pH 7.3, 150 mmol/L NaCl, 1 mmol/L EDTA, 1% Triton X-100, 0.5% Na-deoxycholate, and 0.1% SDS) with complete protease inhibitor, NaVO4, and NaF.

[3] = system: Fancd2−/− BM Stromal cells; test: Colony forming capacity of bone marrow stromal cells; assay type: cell-based, mouse; conditions: 1 μM Mek-i
Procedure: FIG. 3. […] Fancd2+/+ stromal cells shown as a control. • B) Colony forming capacity of Fancd2−/− BM Stromal cells is improved by treatment with 1 μM Mek-i. • C) Immunoblot analysis showing deletion of Tgfbr1, Smad3 and p53 in murine Fancd2+/+ and Fancd2−/− stromal cells • D) Survival of Fancd2−/− stromal cells with deletion of Tgfbr1, Smad3 or p53 in presence of MMC. Error bars represent s.e.m.
FIG. 9. […] Representative image of colonies of Fancd2+/+ and Fancd2−/− cells incubated with or without 1 μM Mek inhibitor.
(§1) For survival assays, cells were seeded at a density of 1×10^3 cells per well in 96-well plates. After 72 hours of culture in indicated concentrations of MMC or post exposure of acetaldehyde, viability was assessed using CellTiterGlo reagent (Promega). In order to assess clonogenicity, cells were seeded at a low density (500-1000 cells per well) in 6-well plates and allowed to form colonies. The cells were then fixed in methanol/20% acetic acid and stained with 1% crystal violet. Colony formation was assessed by solubilizing crystal violet stain with methanol and quantifying UV absorbance for each condition.

[4] = system: EUFA316 (FA-G fibroblasts); test: MMC sensitivity survival assay of FA cells with TGFβ pathway inhibitors; assay type: cell-based, human
Procedure: FIG. 1. TGFβ pathway disruption enhances FA cellular growth. • A) RIGER P value analysis to identify top candidate genes. • B) Clonogenic survival of GM6914 (FA-A fibroblasts) and FANCA-corrected GM6914 cells after shRNA mediated knockdown of SMAD3. Cells were treated with increasing doses of MMC and plated for 10-12 days. The average of two experiments is presented; error bars represent s.e.m.
as §1
as §1, with “3-6 days” for “72 hours”, “Colonies were counted after” for “Colony formation was assessed by solubilizing”, “staining.” for “stain with methanol and quantifying UV absorbance for each condition.”

[5] = system: U2OS cells; test: NHEJ reporter assay; assay type: cell-based, human; conditions: template reporter assay
[6] = system: U2OS cells; test: Immunoblot of DNA-PK phosphorylation; assay type: cell-based, human
[7] = system: primary HSPCs from bone marrow of FA patients; test: Colony forming assay of primary CD34+ bone marrow cells from FA patients; assay type: cell-based, human; conditions: methylcellulose, colonies after 10 days
Source text: (§2) (A) Hierarchical clustering and heat-map of the expression of TGF-β pathway genes in human FA and non-FA bone marrow samples using gene set enrichment analysis. (B-F) Colony forming assays using primary CD34+ bone marrow cells from five FA patients. Cells were transduced with lentiviruses encoding shControl, shTP53 or shSMAD3 followed by selection for puromycin resistance and then plated in methylcellulose cultures or the cells were directly plated in methylcellulose cultures containing GC1008 for colony growth. The hematopoietic colonies were counted after 10 days in culture. (G-I) Colony forming assays using FA-like CD34+ cells from human cord blood. As shown in the schematic (G), FA-like CD34+ cells were generated by transducing human cord blood CD34+ cells with lentivirus encoding shFANCD2. […] Hematopoietic colonies were counted after 10-14 days in culture (I). (J) Colony forming assay of FA-like CD34+ cells with GC1008 treatment. Hematopoietic colonies were counted after 10-14 days in culture. […] Human cells were analyzed in the peripheral blood at 2 weeks post transplantation. […] Representative images (L) and quantification (M) of γH2AX foci in cord blood CD34+ cells transduced with lentivirus encoding shFANCD2 or shControl. […] Cells were then analyzed for γH2AX foci by immunofluorescence. Thirty to hundred cells with more than 5 foci were counted for each sample. […]

[8] = system: FA-like CD34+ cells from human cord blood; test: Colony forming assay of FA-like CD34+ cells; assay type: cell-based; conditions: GC1008 10 μg/mL, colonies after 10-14 days
Source text: as §2, with “blood.” for “blood. As shown in the schematic (G), FA-like CD34+ cells were generated by transducing human cord blood CD34+ cells with lentivirus encoding shFANCD2.”, “(J) Colony forming assay of FA-like CD34+ cells with GC1008 treatment.” left out
(§3) (Dataset: GSE16334). […] Cells were cultured in methylcellulose medium post MMC treatment (2 h at 100 ng/mL) and hematopoietic colonies were counted after 10 days in culture. […] Hematopoietic colonies were counted after 10-14 days in culture. […]

[9] = system: FA-like CD34+ cells in NSG mice; test: In vivo xenograft assay of FA-like CD34+ cells; set-up: species or system mouse; conditions: 10 mg/kg, 3 doses per week for 2 weeks, peripheral blood at 2 and 8 weeks
Source text: as §2, with “blood.” for “blood. As shown in the schematic (G), FA-like CD34+ cells were generated by transducing human cord blood CD34+ cells with lentivirus encoding shFANCD2.”, “(J) Colony forming assay of FA-like CD34+ cells with GC1008 treatment.” left out
as §3

[10] = system: FA-like HSPCs; test: γH2AX and 53BP1 foci after MMC in FA-like HSPCs; assay type: cell-based, human
Source text: as §2, with “(J) Colony forming assay of FA-like CD34+ cells with GC1008 treatment.” left out
HSPCs. […] Representative images (F) and quantification (G) of 53BP1 foci are shown.

[11] = system: Fancd2−/− HSPCs; test: Clonogenic assay of HSPCs in methylcellulose; assay type: cell-based, mouse; conditions: TGF-β1 1 ng/mL, Ab 10 μg/mL or SD208 10 μM; colonies after 7-10 days
Procedure: (A) Expression of phospho-Smad2/3 proteins in HSPCs from WT and Fancd2−/− mice as detected by flow cytometric analysis. (B) Quantification of mean fluorescence intensity (MFI) of phospho-Smad2/3 staining by flow cytometric analysis shown in (A) in HSPCs from WT and Fancd2−/− mice. (C) Fancd2−/− HSPCs are more sensitive to TGF-β1 than WT HSPCs. Sorted Lin− cells from WT or Fancd2−/− mice were exposed to TGF-β1. After 5 days in culture, LSK cells were analyzed by flow cytometry and quantified. Data are shown after normalizing to untreated WT group. […] Sorted Lin− cells from WT and Fancd2−/− mice were exposed to TGF-β1 (1 ng/mL) with or without TGF-beta 1,2,3 Ab (10 μg/mL) or SD208 (10 μM), and viable cells were counted after 5 days in culture. Data shown are after normalizing to untreated WT group. Error bars represent mean±s.e.m. (F) Clonogenic assay of WT and Fancd2−/− HSPCs treated with TGF-β1, TGF-beta 1, 2, 3 Ab or SD208. […] Hematopoietic colonies were counted after 7-10 days in culture. […] (I) Representative FACS plots of LSK cells analyzed by flow cytometry for GFP expression after 5 days in vitro culture in stem cell culture medium. […] Luciferase activity was measured. (L) Binding of FANCD2 to SMAD1 promoter (region −2108 to −1950 bp) upon DNA damage as detected by ChIP assay using anti-FANCD2 antibody in corrected GM6914 (+FANCA) but not GM6914 (+Vector) fibroblast cells. […]

[12] = mice pretreated in vivo, LT-HSCs isolated

Molecule: Cc1cccc(-c2nn3c(c2-c2ccnc4ccc(C(N)=O)cc24)CCC3)n1 [Galunisertib]
- pIpC-induced DNA damage in LT-HSCs, comet assay [1, 12]: rescued the pIpC-induced DNA damage
- pIpC-induced DNA damage, gamma H2AX foci [1, 12]: rescued the pIpC-induced DNA damage
- physiological stress-induced bone marrow failure ([1]; mice, pIpC, pretreated in vivo): rescues physiological stress-induced bone marrow failure

Molecule: O=C(NOC[C@H](O)CO)c1ccc(F)c(F)c1Nc1ccc(I)cc1F [PD0325901]
- Erk1/2 phosphorylation ([2]; mouse stromal cells exposed to MEK inhibitor): inhibition of Erk1/2 phosphorylation; also recorded: reduces p-Erk1/2 expression
- clonogenicity / colony forming capacity of Fancd2−/− stromal cells [3]: significantly increased the clonogenicity
- clonogenicity / colony forming capacity of Fancd2−/− stromal cells ([3]; listed as Mek-i): improved

Molecule: COc1cc2c(cc1OC)CN(C(=O)/C=C/c1c(-c3ccccc3)n(C)c3ncccc13)CC2 [SIS3]
- FA cells survival in the presence of MMC ([4]; FA cell lines with inhibitor): improved FA cells survival in the presence of MMC
- cytotoxicity of corrected FA cells ([4]; corrected FA cells): do not significantly alter cytotoxicity of corrected FA cells
- NHEJ activity [5]: decreased NHEJ
- phosphorylation of DNA-PK [6]: blocks phosphorylation of DNA-PK

Molecule: GC1008: anti-human TGF-β neutralizing antibody
- clonogenic defects of primary HSPCs from FA patients [7]: rescued the clonogenic defects
- clonogenic capacity of FA-like HSPCs [8]: markedly rescuing the clonogenic capacity
- engraftment of primary FA-like CD34+ cells [9]: enhanced the engraftment
- number of FA-like HSPCs with 53BP1 foci ([10]; MMC 100 ng/mL 2 h, 24 h recovery): significantly reduced
- number of FA-like HSPCs with γH2AX foci ([10]; MMC 100 ng/ml 2 hrs, 24 hrs recovery): significantly reduced

Molecule: TGF-β1: recombinant TGFβ1 cytokine (human from ProPeptide, mouse from R&D)
- pErk1/2 after mTGFβ1 exposure ([2]; FA stromal cells): further activated pErk1/2
- phosphorylation of DNA-PK [6]: activated phosphorylation of DNA-PK
- clonogenic ability of Fancd2−/− HSPCs [11]: inhibited
